From patent US11872230B2, “Method of treating a methionine-dependent cancer” (Agency for Science, Technology and Research, priority 2018, dated 2024)
Entries after “also recorded” stand apart in the source; their conditions may differ.

What was measured:
[1] = system: Adh cells; assay: Proliferation of Adh cells grown in FIDAS5-containing media; type: cell-based, human
Method: (§1) Cells were seeded into 96-well plates at a density of 2,000 cells/well for TS cells and 500 cells/well for Adh cells. The relative number of viable cells was determined by the quantification of ATP using the CellTiter-Glo Luminescent Cell Viability Assay (Promega) system.

[2] = system: triple-negative breast cancer (TNBC) cells incl. BC2.2; assay: Sensitivity of triple-negative breast cancer cells to MAT2A inhibition; type: cell-based; conditions: in particular chemotherapy resistant BC2.2
[3] = system: methionine cycle metabolites in TS cells; assay: LC/MS abundance of methionine cycle metabolites 48 h after inhibitor treatment; type: cell-based, human; conditions: 48 h FIDAS5 (10 μM), normalized to DMSO
Method: Cis-platinum (cis-Diammineplatinum(II) dichloride) and MG132 (10 μM final concentration) was purchased from Sigma, FIDAS-5 (final concentration of 10 μM in culture medium) from Merck Millipore and D9 (final concentration of 500 nM in culture medium).
For suspension cell culture, 10 million cells per sample were obtained and quenched with 4 volumes of ice-cold 150 mM sodium chloride solution. The cell pellets were collected by centrifugation of the quenched samples at 3000 g for 5 min at 4° C. and the supernatant was aspirated and discarded. For adherent cell culture, the media was gently aspirated and the cells on the surfaces of the well plates were gently washed with ice-cold 150 mM sodium chloride solution thrice. Ice-cold sodium chloride was added to the plate and a cell scraper was used to release adherent cells from the plate surface. The cell pellets were collected as described earlier and kept on ice. […]
For targeted LC/MS analysis, the chromatographic peak integration was performed using Targetlynx software (Waters Corp). In addition, for the ^13C-labeled methionine pulse-chase experiments, the atomic percent excess (APE) for each species was calculated and natural abundance corrected from an isotopomer matrix accounting for the presence of natural abundance carbons distributed throughout each possible parent/daughter ion combination (Table 3). […]

[4] = system: histone methylation in NIH 3T3 cells; assay: Western blot of methylated histones in NIH 3T3 cells; type: cell-based; conditions: FIDAS5 treatment
Method: (§2) 1.5×10^6 cells were lysed in Llaemli-SDS buffer and then sonicated. Total protein concentration was measured by Bradford assay. Total cell lysates were separated by SDS-PAGE and transferred onto nitrocellulose, followed by blocking in 5% (v/v) milk in Tris-buffered saline in Tween 20, probing with the indicated antibodies and visualized by chemiluminescence (Roche). Primary antibodies used were anti-β-Actin (sc-47778), anti-GAPDH (sc-32233) from Santa Cruz: anti-GLDC (ab97625), anti-H3 (ab1791), anti-H3 (dimethylK36) (ab9049), anti-MAT2A (ab77471), anti-MTR (ab9209), anti-H3 (trimethylK79) (ab2621), anti-MTHFR (ab125707), anti-MTAP (ab ab55517) from Abcam; anti-H3(trimethyl K4) (39159), anti-H3(trimethyl K27)(39155), anti-H3(trimethylK36)(61101) and anti-H3(trimethylK9)(39765) from Active Motif; anti-β-catenin (BD610154) from BD Biosciences; anti-SHMT2 (HPA020549) and anti-SAHH (WH0000191M8) from Sigma; anti-Symmetric Di-Methyl Arginine Motif (13222) from CST.

[5] = system: non-neoplastic cell lines; assay: Proliferation of non-neoplastic (untransformed) cell lines in FIDAS5-containing media; type: cell-based
Method: as §1

[6] = system: histone methylation in Adh cells; assay: Western blot of methylated histones in Adh cells; type: cell-based, human; conditions: FIDAS5 treatment
Method: as §2

[7] = system: TS cells (lung TICs); assay: Soft agar colony formation of pre-treated TS cells; type: cell-based, human; conditions: TS cells treated 48 h with inhibitor prior to soft agar assay
Method: 2.5 ml lower layer of 0.7% agar in complete DMEM/F12 with 10% fetal bovine serum was placed in 3 wells of a 6 well dish, and permitted to solidify. 2×10^4 Cells (for 3 wells) were then suspended in a 2 ml layer of 0.35% agar in complete DMEM/F12 with 10% fetal bovine serum and layered on top of the bottom layer. Colonies were stained with crystal violet and counted after approximately 2 months.
To evaluate the methionine cycle as a therapeutic target in lung TICs, small molecule inhibitors that target enzymes within this pathway were employed, mimicking the effects of short-term methionine starvation (FIG. 5a). two inhibitors known to perturb methionine cycle activity and cellular methylation levels: 1) MAT2A inhibitor, FIDAS5; and 2) SAHH inhibitor, D9, which is an analog of DZNep. In a manner similar to amino acid starvation studies, TS cells were exposed transiently to the compounds for 48 h in culture and were immediately used for downstream tumorigenesis assays.

[8] = system: TS cells; assay: Apoptosis assay (Annexin V/PI) of inhibitor treated TS cells; type: cell-based, human; conditions: transient exposure
Source text: 10^6 cells were stained with FITC Annexin V and PI, and analysed for apoptosis by flow cytometry using an LSRII Cell Analyzer (BD) according to manufacturer's instructions.

[9] = system: TS cells; assay: Cell proliferation assay (CellTiter-Glo) of TS cells; type: cell-based, human
Method: as §1

[10] = system: CD166 expression in TS cells; assay: CD166 staining of TS cells by flow cytometry; type: cell-based, human; conditions: FIDAS vs DMSO

CNc1ccc(/C=C/c2c(F)cccc2Cl)cc1 [FIDAS5]
proliferation in FIDAS5-containing media [1]: far less affected
effect on TNBC cells [2]: displayed sensitivity; also recorded: effective
reduction of intracellular levels of SAH [3]: ~10 fold
reduction of intracellular levels of SAM [3]: ~10 fold
histone methylation marks [4]: did not demonstrate reduction in histone methylation marks
proliferation in FIDAS5-containing media [5]: far less affected
histone methylation marks [6]: did not demonstrate reduction in histone methylation marks
colony-forming ability [7]: severely diminished
apoptosis [8]: did not negatively impact their long-term proliferation ability or trigger apoptosis
growth capacity ([9]; TS cells exposed to FIDAS5 for six days, then medium without FIDAS5): completely ablated
long-term proliferation ability ([9]; TS cells, transient 48 h exposure then complete media): did not negatively impact
CD166 expression [10]: loss of CD166 expression
